The record followed here is PubChem BioAssay AID720512 (Broad Institute, 2013).

Active and inactive are the calls of the source. No rule for the calls is given here.

For orientation: AC50 means the concentration giving half of the maximal activity seen.

One assay concerns the target Toxin B (TcdB) glycohydrolase, Clostridioides difficile 630. Description: TcdB glycohydrolase inhibitors, dose response, biochemical, cherry-pick, plate reader (AID 720512). The following applies: recombinant TcdB glycohydrolase activity.
For `COc1ccc2nc(NNC(=O)C3COc4ccccc4O3)sc2c1` (configuration not stated), the AC50 is 3.04 µM.

Turning to `CC(=O)N/C(=C\c1ccccc1)C(=O)Nc1ccc(O)cc1`, the AC50 is > 39 µM (inactive). Still for that read-out and setting: the same measure for `COc1cc(/C=C/C(=O)OCC(=O)NC(=O)NC(C)C)ccc1O`: > 39 µM (inactive); for `C/C(=N\Nc1cc(N2CCOCC2)ncn1)c1ccc(O)cc1`: > 39 µM (inactive). Same read-out and setting: the same measure for `O=c1[nH]c(/C=C\c2ccc(O)c(Cl)c2)nc(O)c1[N+](=O)[O-]`: > 39 µM (inactive). Still for that read-out and setting: the same measure for `c1ccc(OCCSc2nnc3sc4ccccc4n23)cc1`: > 39 µM (inactive); for `Cc1cc(C)c2nc(C)cc(N/N=C/c3ccc(O)cc3)c2c1`: > 39 µM (inactive); for `CCCNC(=O)C[C@H]1CC[C@@H]2[C@H](COc3ccc(NC(=O)c4ccc(Cl)cc4)cc3C(=O)N2C)O1`: > 39 µM (inactive). In the case of `Cc1cccc(NC(=O)c2ccc(N3CCOCC3)c([N+](=O)[O-])c2)n1`, the AC50 is > 39 µM (inactive). For the compound `O=C(NC(=S)Nc1ccc(N2CCOCC2)cc1)c1ccccc1`, the AC50 was > 39 µM (inactive). `Cc1ccc2nc(-c3ccc4c(c3)OCCO4)cn2c1`: the AC50 was > 39 µM (inactive). Still for that read-out and setting: the same measure for `CCOc1cc(/C=N/n2cnnc2)ccc1O`: > 39 µM (inactive).

Still in this assay, the particulars now being: recombinant TcdB glycohydrolase activity, at 10 µM (top of the series).
Turning to `COc1ccc2[nH]c3c(=O)n(CCCCC(=O)NCCN4CCCC4)c(=S)[nH]c3c2c1`, the “activity change, negative = inhibition” value was “inactive”.

The same assay, now with this note: recombinant TcdB glycohydrolase activity, at 19.5 µM (top of the series).
Turning to `CCCCn1c(N)c(N(CCOC)C(=O)CSc2nnc(-c3ccco3)n2CC)c(=O)[nH]c1=O`, the “activity change, negative = inhibition” value is “inactive”. Take `COc1cc(/C=N/N2C(=O)C3C4C=CC(CC4)C3C2=O)ccc1O` (configuration not stated): the “activity change, negative = inhibition” value was “inactive”.

On to `COc1cc(Cc2ccc(N)c(OC)c2)ccc1N`, for which the “activity change, negative = inhibition” value is “inactive”. On the same count and under the same terms, the same measure for `Cc1cccc2sc(NNC(=O)C3COc4ccccc4O3)nc12` (configuration not stated): “inactive”. With `CNC(=S)N/N=C/c1c(C(=O)OC)cnn1-c1ccc(F)cc1F`, the “activity change, negative = inhibition” value was “inactive”. In the case of `COc1cc(OC)cc(C(=O)NNC(=O)CN2C(=O)NC(C)(c3ccc(C)cc3)C2=O)c1` (configuration not stated), the “activity change, negative = inhibition” value was “inactive”. Same read-out and setting: the same measure for `C[C@@H]1CN([C@H](C)CO)C(=O)c2cccc(N(C)C)c2O[C@@H]1CN(C)C(=O)Nc1ccc(C(F)(F)F)cc1`: “inactive”; for `CN1C=CC(=CC=C2C=CC(=O)C=C2)C=C1`: “inactive”; for `O=C(CC(c1ccccc1)c1ccccc1)Nc1ccc(O)cc1`: “inactive”. The same measure, in the same setting: the same measure for `Cc1ccc(CN2C(=O)CN=C(c3ccccc3)c3ccccc32)cc1`: “inactive”; for `O=C(CSc1nnc(-c2ccncc2)o1)N1CCCCCC1`: “inactive”; for `Cc1ccc(Cc2c(-c3ccc(C)cc3)nc3ccc(Cl)cn23)cc1`: “inactive”.

As to `CC(=O)C(Sc1nccc(-c2cccs2)n1)C(C)=O`, the “activity change, negative = inhibition” value was “inactive”. With `C[C@@H]1CN([C@@H](C)CO)S(=O)(=O)c2ccc(C#Cc3ccncc3)cc2O[C@H]1CN(C)C(=O)C1CC1`, the “activity change, negative = inhibition” value is “inactive”. The same measure, in the same setting: the same measure for `OCC[C@H]1C[C@H](O)[C@@H](O)[C@@]2(Cc3ccccc3CO2)O1`: “inactive”. Consider `COc1ccc(C(CNC(=O)c2oc3ccc(OC)cc3c2C)N2CCCC2)cc1` (configuration not stated), for which the “activity change, negative = inhibition” value is “inactive”. For the compound `CCOc1ccccc1/C=C/c1onc(C)c1S(=O)(=O)N1CCC(C(=O)N2CCCCCC2)CC1`, the “activity change, negative = inhibition” value was “inactive”. Turning to `CSc1nc2c(c(=O)[nH]c(=O)n2C)n1Cc1ccccc1`, the “activity change, negative = inhibition” value is “inactive”.

On to `Cc1cc(O)ccc1N=Cc1c(C(F)(F)F)[nH][nH]c1=O`, for which the “activity change, negative = inhibition” value was “inactive”. For the compound `COc1cc(/C=N/Nc2ccccn2)ccc1O`, the “activity change, negative = inhibition” value was “inactive”.

Turning to `Cc1cc(SCC(=O)N/N=C/c2ccco2)nc2ccccc12`, the “activity change, negative = inhibition” value was “inactive”. Turning to `NS(=O)(=O)c1ccc(NC(=S)NCc2ccc3c(c2)OCO3)cc1`, the “activity change, negative = inhibition” value was “inactive”.

Consider `COc1ccc(NC(=O)C2CC(=O)N(c3ccccc3F)C2)cc1S(=O)(=O)N1CCCCC1` (configuration not stated), for which the “activity change, negative = inhibition” value was “inactive”. Same read-out and setting: the same measure for `COc1ccccc1C(=O)Nc1cccc(Oc2c(F)c(F)c(F)c(F)c2F)c1`: “inactive”. The same measure, in the same setting: the same measure for `Cn1c(=O)c2c(nc(N3CCOCC3)n2CCSc2ncccn2)n(C)c1=O`: “inactive”. As to `CCC(=O)c1cn(CC(=O)Nc2cccc(C)c2C)c2ccccc12`, the “activity change, negative = inhibition” value was “inactive”. The same measure, in the same setting: the same measure for `COc1ccc(C=C2CCC3C(=O)CCCC3(C)C2=O)cc1` (configuration not stated): “inactive”; for `Cc1ccc(CNC(=O)Nc2cccc(C)c2)cc1`: “inactive”. Consider `CCCC(=O)Nc1sc2c(c1C(=O)Nc1ccccn1)CCCC2`, for which the “activity change, negative = inhibition” value is “inactive”. `CCN(C(=O)COC(=O)c1cccnc1SC)C1CCCCC1`: the “activity change, negative = inhibition” value was “inactive”. The same measure, in the same setting: the same measure for `CNC(=O)C1CCN(S(=O)(=O)c2c(C)noc2/C=C/c2cccc(C)c2)CC1`: “inactive”. Same read-out and setting: the same measure for `COc1ccc(NC(=O)Nc2nc(C)cc(C)n2)c(OC)c1`: “inactive”; for `Cc1ccc(C(=O)NC(=S)NNC(=O)CC#N)cc1`: “inactive”; for `Cc1ccc(-c2cc(C(=O)OC3CCOC3=O)c3ccccc3n2)c(C)c1` (configuration not stated): “inactive”. `O=C(CSc1cccc2cccnc12)N/N=C/c1ccc(F)cc1`: the “activity change, negative = inhibition” value is “inactive”. The same measure, in the same setting: the same measure for `C=CCOc1cccc(CNc2ccc3[nH]c(=O)[nH]c3c2)c1`: “inactive”.

Consider `NS(=O)(=O)c1ccc(CCNC(=O)c2ccc(CS(=O)(=O)c3ccc(Br)cc3)o2)cc1`, for which the “activity change, negative = inhibition” value is “inactive”. The same measure, in the same setting: the same measure for `O=C(Nc1ccncc1)c1ccc(-c2ccccc2)cc1`: “inactive”; for `O=C(C[C@H]1C[C@H]2c3cc(NC(=O)c4ccc5c(c4)OCO5)ccc3O[C@H]2[C@H](CO)O1)NCc1cccc(F)c1`: “inactive”. With `Cc1ccc2c(c1)/C(=C/c1ccccc1C)C(=O)N2`, the “activity change, negative = inhibition” value was “inactive”.

For `O=C(NCc1ccccc1)[C@@H]1CCCN1C(=O)[C@@H]1CCCN1C(=O)c1cccs1`, the “activity change, negative = inhibition” value is “inactive”.

In the case of `O=C(NC(=S)NNC(=O)c1ccccc1F)c1cccnc1`, the “activity change, negative = inhibition” value is “inactive”. With `Cc1cc(C(C)(C)C)cc(CN2CCN(S(=O)(=O)c3cccs3)CC2)c1O`, the “activity change, negative = inhibition” value is “inactive”. For the compound `COc1ccc(CC(=O)C2C(=O)N(C)c3ccccc32)cc1OC` (configuration not stated), the “activity change, negative = inhibition” value is “inactive”.

As for `COc1cc(N=Nc2c(C)n(C)n(-c3ccccc3)c2=O)ccc1N`, the “activity change, negative = inhibition” value was “inactive”. Take `O=C(C[C@H]1CC[C@H]2[C@@H](COC[C@@H](O)CN2Cc2ccccc2)O1)NCCc1ccccc1`: the “activity change, negative = inhibition” value was “inactive”. With `O=C(c1ccc2c(c1)N(Cc1ccccc1F)C(=O)c1ccccc1S2)N1CCOCC1`, the “activity change, negative = inhibition” value was “inactive”. For the compound `O=C(NNC(=O)c1cccc2ccccc12)c1cccc(F)c1`, the “activity change, negative = inhibition” value is “inactive”.

`CCCNC(=O)Nc1ccc2c(c1)C(=O)N(C)[C@H]1CC[C@H](CC(=O)NC3CCC3)O[C@@H]1CO2`: the “activity change, negative = inhibition” value is “inactive”. For the compound `COc1ccc(/C=C/c2onc(C)c2S(=O)(=O)N2CCC(C(=O)N3CCC(C)CC3)CC2)cc1`, the “activity change, negative = inhibition” value was “inactive”. The same measure, in the same setting: the same measure for `CCc1ccc2oc(-c3cc(N)ccc3Cl)nc2c1`: “inactive”. On the same count and under the same terms, the same measure for `S=C(c1cn(Cc2ccccc2)c2ccccc12)N1CCOCC1`: “inactive”. For `CNC(=O)C[C@H]1CC[C@@H]2[C@H](COc3ccc(NC(=O)c4ccc(OC)cc4)cc3C(=O)N2C)O1`, the “activity change, negative = inhibition” value is “inactive”.

Regarding `COc1ccc(CNC(=O)Cc2cn(C)c3ccccc23)c(OC)c1`, the “activity change, negative = inhibition” value was “inactive”. On to `O=S(=O)(Oc1ccccc1-c1ccccc1)c1ccccc1`, for which the “activity change, negative = inhibition” value was “inactive”.

For the compound `Cc1cc(NC(=O)CCCN2C(=O)c3cccc4cccc(c34)C2=O)no1`, the “activity change, negative = inhibition” value is “inactive”. Still for that read-out and setting: the same measure for `CC(C)(C)N1C(=O)c2ccc(C(=O)Nc3ccc(O)cc3)cc2C1=O`: “inactive”; for `CCOc1ccc(S(=O)(=O)NCc2ccccc2Cl)cc1C(N)=O`: “inactive”; for `O=C(CC(=O)N/N=C/c1ccc(O)cc1)N/N=C/c1ccc(O)cc1`: “inactive”. For `CSc1ccc(/C=N/N2CCN(Cc3ccc(Cl)cc3)CC2)cc1`, the “activity change, negative = inhibition” value was “inactive”. Same read-out and setting: the same measure for `CC(=O)NC(Cc1ccccc1)C(=O)Oc1ccc2ccccc2c1` (configuration not stated): “inactive”; for `Cc1onc(-c2ccccc2)c1C(=O)N/N=C/c1cn(C)c2ccccc12`: “inactive”; for `COc1cc(/C=N/NC(=O)C2(O)c3ccccc3-c3ccccc32)ccc1O`: “inactive”. Same read-out and setting: the same measure for `Cc1nn(CCOc2ccccc2)c(=O)n1-c1ccc(Cl)cc1`: “inactive”; for `c1ccc(Cc2nnc3n2N=C(c2ccccc2)CS3)cc1`: “inactive”. As to `c1ccc2[nH]c(-c3ccc4c(c3)OCO4)nc2c1`, the “activity change, negative = inhibition” value was “inactive”. In the case of `CCOC(=O)C1=C(C)Nc2nnnn2C1c1ccc(OC)c(Br)c1` (configuration not stated), the “activity change, negative = inhibition” value was “inactive”.

Regarding `CC(C)(C)C(=O)C1=C(O)C(=O)N(c2ccccc2)C1c1ccccc1` (configuration not stated), the “activity change, negative = inhibition” value was “inactive”. For `COc1cccc(C(=O)C2CCCN(Cc3ccc(F)cc3)C2)c1` (configuration not stated), the “activity change, negative = inhibition” value is “inactive”.
